From patent US11051515B2, “3-acyl-benzamides and their use as herbicides” (Bayer Aktiengesellschaft, priority 2017, dated 2021)

What was measured:
ALOMY [1] = assay: Pre-emergence action against ALOMY; assay type: in vivo, Alopecurus myosuroides; conditions: for pest or weed control at 320 g/ha: Alopecurus myosuroides, 504 h, dosage 320 g/ha, pre-emergence, scored visually after 3 weeks vs untreated controls, 100% = plants have died, 0% = like control plants, read-out: Pre-emergence action against ALOMY (herbicidal activity in percent); for Herbicidal efficacy against ALOMY: 80 g of a.i./ha
Procedure, shortened: (§1)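 Seeds sown in sandy loam in wood-fiber pots and covered with soil. Greenhouse growth; visual damage scored after 3 weeks versus untreated controls (100% = dead, 0% = like control).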

AVEFA [2] = assay: Pre-emergence action against AVEFA; assay type: in vivo, Avena fatua; conditions: Avena fatua, 504 h, dosage 320 g/ha, scored visually after 3 weeks vs untreated controls, read-out: Pre-emergence action against AVEFA (herbicidal activity)
Procedure, shortened: as §1

CYPES = assay: Pre-emergence action against CYPES; assay type: in vivo, Cyperus esculentus; conditions: for pest or weed control at 320 g/ha: Cyperus esculentus, 504 h, pre-emergence, dosage 320 g/ha, scored visually after 3 weeks vs untreated controls, read-out: Pre-emergence action against CYPES (herbicidal activity); for Herbicidal efficacy against CYPES: 80 g of a.i./ha
Procedure, shortened: as §1

ECHCG = assay: Pre-emergence action against ECHCG; assay type: in vivo, Echinochloa crus-galli; conditions: for pest or weed control at 320 g/ha: Echinochloa crus-galli, 504 h, pre-emergence, dosage 320 g/ha, scored visually after 3 weeks vs untreated controls, read-out: Pre-emergence action against ECHCG (herbicidal activity); for Herbicidal efficacy against ECHCG: Table V3, pre-emergence, 80 g of a.i./ha
Procedure, shortened: as §1

SETVI [3] = assay: Pre-emergence action against SETVI; assay type: in vivo, Setaria viridis; conditions: for pest or weed control at 320 g/ha: Setaria viridis, 504 h, pre-emergence, dosage 320 g/ha, scored visually after 3 weeks vs untreated controls, read-out: SETVI (Table B8, pre-emergence herbicidal activity)
Procedure, shortened: as §1

AMARE [4] = assay: Pre-emergence action against AMARE; assay type: in vivo, Amaranthus retroflexus; conditions: for pest or weed control at 320 g/ha: Amaranthus retroflexus, 504 h, pre-emergence, dosage 320 g/ha, scored visually after 3 weeks vs untreated controls, read-out: Pre-emergence action against AMARE (herbicidal activity); for Herbicidal efficacy against AMARE: Table V3, pre-emergence, 80 g of a.i./ha
Procedure, shortened: as §1

PHBPU = assay: Pre-emergence action against PHBPU; assay type: in vivo, Pharbitis purpurea; conditions: Ipomoea purpurea, 504 h; Dosage 320 g/ha, pre-emergence
Procedure, shortened: as §1

POLCO = assay: Pre-emergence action against POLCO; assay type: in vivo, Polygonum convolvulus; conditions: for pest or weed control at 320 g/ha: Fallopia convolvulus, 504 h, Dosage 320 g/ha, pre-emergence
Procedure, shortened: as §1

STEME [5] = assay: Pre-emergence action against STEME; assay type: in vivo, Stellaria media; conditions: for pest or weed control at 320 g/ha: Stellaria media, 504 h, Dosage 320 g/ha, pre-emergence
Procedure, shortened: as §1

VIOTR = assay: Pre-emergence action against VIOTR; assay type: in vivo, Viola tricolor; conditions: for Herbicidal efficacy against VIOTR: 80 g of a.i./ha; for pest or weed control at 320 g/ha: Viola tricolor, 504 h, Dosage 320 g/ha, pre-emergence
Procedure, shortened: as §1

VERPE [6] = assay: Pre-emergence action against VERPE; assay type: in vivo, Veronica persica; conditions: for pest or weed control at 320 g/ha: Veronica persica, 504 h, Dosage 320 g/ha, pre-emergence
Procedure, shortened: as §1

ALOMY [7] = assay: Post-emergence action against ALOMY; assay type: in vivo, Alopecurus myosuroides; conditions: for pest or weed control at 80 g/ha: Alopecurus myosuroides, 504 h, Dosage 80 g/ha, post-emergence
Procedure, shortened: (§2)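 Post-emergence foliar spray on greenhouse plants at the one-leaf stage, using wettable-powder or emulsion-concentrate formulations in water (600 to […], plus 0.2% wetting agent). Damage scored by eye roughly 3 weeks later against untreated plants: 0% = like control, 100% = dead.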

AVEFA [8] = assay: Post-emergence action against AVEFA; assay type: in vivo, Avena fatua; conditions: for pest or weed control at 80 g/ha: Avena fatua, 504 h, post-emergence, dosage 80 g/ha, visual assessment about 3 weeks after treatment vs untreated controls, read-out: Post-emergence action against AVEFA (herbicidal action in percent)
Procedure, shortened: as §2

SETVI [9] = assay: Post-emergence action against SETVI; assay type: in vivo, Setaria viridis; conditions: for pest or weed control at 80 g/ha: Setaria viridis, 504 h, post-emergence, dosage 80 g/ha, visual assessment about 3 weeks after treatment vs untreated controls, read-out: Post-emergence action against SETVI (herbicidal action in percent)
Procedure, shortened: as §2

ABUTH = assay: Post-emergence action against ABUTH; assay type: in vivo, Abutilon theophrasti; conditions: Abutilon theophrasti, 504 h; post-emergence, dosage 80 g/ha, visual assessment about 3 weeks after treatment vs untreated controls; read-out: Post-emergence action against ABUTH (herbicidal action in percent)
Procedure, shortened: as §2

AMARE [10] = assay: Post-emergence action against AMARE; assay type: in vivo, Amaranthus retroflexus; conditions: for pest or weed control at 80 g/ha: Amaranthus retroflexus, 504 h, post-emergence, dosage 80 g/ha, visual assessment about 3 weeks after treatment vs untreated controls, read-out: Post-emergence action against AMARE (herbicidal action in percent); for Herbicidal efficacy against AMARE: 5 g of a.i./ha
Procedure, shortened: as §2

STEME [11] = assay: Post-emergence action against STEME; assay type: in vivo, Stellaria media; conditions: Stellaria media, 504 h; post-emergence, dosage 80 g/ha
Procedure, shortened: as §2

VERPE [12] = assay: Post-emergence action against VERPE; assay type: in vivo, Veronica persica; conditions: Veronica persica, 504 h, dosage 80 g/ha
Procedure, shortened: as §2

[13] = Table V2, pre-emergence, 20 g of a.i./ha
[14] = Table V15, post-emergence, 5 g of a.i./ha
[15] = Table V4, pre-emergence, 20 g of a.i./ha

| Structure (SMILES) | pest or weed control at 320 g/ha (ALOMY [1]) [%] | Herbicidal efficacy against ALOMY (ALOMY [1]; Table V3, pre-emergence) | pest or weed control at 320 g/ha (AVEFA [2]) [%] | pest or weed control at 320 g/ha (CYPES) [%] | Herbicidal efficacy against CYPES (CYPES; Table V3, pre-emergence) | pest or weed control at 320 g/ha (ECHCG) [%] | Herbicidal efficacy against ECHCG (ECHCG) | pest or weed control at 320 g/ha (SETVI [3]) [%] | pest or weed control at 320 g/ha (AMARE [4]) [%] | pest or weed control at 320 g/ha (PHBPU) [%] | pest or weed control at 320 g/ha (POLCO) [%] | pest or weed control at 320 g/ha (STEME [5]) [%] | pest or weed control at 320 g/ha (VIOTR) [%] | pest or weed control at 320 g/ha (VERPE [6]) [%] | pest or weed control at 80 g/ha (AVEFA [8]) [%] | pest or weed control at 80 g/ha (SETVI [9]) [%] | pest or weed control at 80 g/ha (ABUTH) [%] | pest or weed control at 80 g/ha (AMARE [10]) [%] | pest or weed control at 80 g/ha (STEME [11]) [%] | pest or weed control at 80 g/ha (VERPE [12]) [%] | other results |
| --- | --- | --- | --- | --- | --- | --- | --- | --- | --- | --- | --- | --- | --- | --- | --- | --- | --- | --- | --- | --- | --- |
| Cn1nnnc1NC(=O)c1ccc(S(C)(=O)=O)c(C(=O)C2CC2)c1Cl [1-129] | 100 | 100 | 100 | 100 | 100 | 100 | 100 | 100 | 100 | 100 | 80 | 100 | 100 | 100 | 100 | 100 | 90 | 100 | 100 | 100 | ECHCG (ECHCG; [13]): 90; SETVI (SETVI [3]; [13]): 90; AMARE (AMARE [4]; [13]): 90; Herbicidal efficacy against AMARE (AMARE [4]): 100; Herbicidal efficacy against VIOTR (VIOTR; Table V3, pre-emergence): 100; VERPE (VERPE [6]; [13]): 100; pest or weed control at 80 g/ha (ALOMY [7]): 100%; Herbicidal efficacy against ALOMY (ALOMY [7]; [14]): 70; Herbicidal efficacy against AVEFA (AVEFA [8]; [14]): 60; Herbicidal efficacy against SETVI (SETVI [9]; [14]): 100; Herbicidal efficacy against AMARE (AMARE [10]; Table V15, post-emergence): 100 |
| CC(=O)c1c(S(C)(=O)=O)ccc(C(=O)Nc2nnnn2C)c1Cl [1-127] | 100 | 80 | 90 | 90 | 90 | 100 | 100 | 90 | 100 | 90 | 90 | 90 | 100 | 100 | 80 | 80 | 90 | 100 | 90 | 100 | Herbicidal efficacy against ALOMY (ALOMY [1]; Table V1, pre-emergence): 80; Herbicidal efficacy against CYPES (CYPES; Table V1, pre-emergence): 90; Herbicidal efficacy against AMARE (AMARE [4]): 100; Herbicidal efficacy against POLCO (POLCO; Table V1, pre-emergence, 80 g of a.i./ha): 70; Herbicidal efficacy against STEME (STEME [5]; [15]): 70; Herbicidal efficacy against VIOTR (VIOTR; Table V1, pre-emergence): 100; Herbicidal efficacy against VIOTR (VIOTR; Table V3, pre-emergence): 100; Herbicidal efficacy against VERPE (VERPE [6]; [15]): 90; Herbicidal efficacy against AMARE (AMARE [10]; Table V14, post-emergence): 100 |
| CSc1c(C(=O)Nc2nnnn2C)ccc(C(F)(F)F)c1C(C)=O [1-58] | 100 | – | 100 | 100 | – | 100 | – | 100 | 100 | 100 | 100 | 100 | 100 | 100 | 100 | 100 | 100 | 100 | 100 | 100 | pest or weed control at 80 g/ha (ALOMY [7]): 90% |
